Patent US12102594B2, “Infusion bag of Midazolam for intravenous use” (Sun Pharmaceutical Industries Limited, priority 2019, dated 2024)

Experiments:
[1] = Adsorption behaviour of Midazolam in different bags at variable fill volume (HPLC assay); format: physicochemical; settings: 1 mg/mL, fill volumes 10, 20, 30, 40 ml
Description: Method: Adsorption behaviour of Midazolam in different bags (IC-S′, IC-S and IC-PHC) was evaluated at four variable fill volumes, i.e. 10 ml, 20 ml, 30 ml and 40 ml. The assay values of autoclaved samples of Midazolam formulation were evaluated using an HPLC based assay method. […] At lowest fill volume, surface area to volume ratio was high resulting higher adsorption of API on contact layer of infusion bags. As fill volume increases surface area to volume ratio decreases leads to lower adsorption and higher assay values. This confirmed the physical adsorption of Midazolam in IC-S infusion bags. […] This also ruled out the possibility of Midazolam adsorption in IC-PHC infusion bags.

[2] = Terminal sterilization in different packaging material: Midazolam potency by HPLC based assay; format: physicochemical
Description: Method: Midazolam formulation samples (i) autoclaved and (ii) unautoclaved, were stored in different packaging materials, i.e. glass bottle, IC-H-AE-1, IC-S, IC-S′ and IC-PHC. Initial potency of Midazolam in such samples was tested using an HPLC based assay method.

[3] = cited from earlier work
[4] = Potency loss at lower concentration 0.2 and 0.5 mg/mL in different infusion bags (HPLC assay); format: physicochemical
Description: Method: Loss of potency of Midazolam was assessed using an HPLC based assay method for (i) autoclaved and (ii) unautoclaved formulations (0.2 mg/ml and 0.5 mg/ml) in glass bottle, IC-S infusion bag, IC-S′ infusion bag and IC-PHC infusion bag.

[5] = Packaging material screening: Assay of Midazolam HCL Injection in autoclaved and unautoclaved infusion containers; format: physicochemical
Description: Manufacturing process: Bulk solution preparation: 80% of the batch size of water for injection (WFI) was collected at a temperature of 20° C. to 25° C. in stainless steel 316L manufacturing tank of suitable capacity. Nitrogen gas was purged to get dissolve oxygen content less than 1 mg/L (ppm), pressure of nitrogen gas and time of purging or flow rate of nitrogen gas were recorded. Sodium chloride was added and dissolved gradually followed by stirring for not less than 10 minutes to ensure complete solubilization and clarity of solution visually. While additional excipients were added as below, the purging was stopped. 1 w/w hydrochloric acid (35 mL/Kg) was added and stirred well for approximately 10 minutes. […] The pH was adjusted to 3.0±0.1 using sufficient quantity of 1 w/w hydrochloric acid and stirred for around 1 h after pH adjustment to ensure complete dissolution of drug, stabilization of pH and until the appearance of the solution was a clear colourless solution. The pH was adjusted at 3.4±0.2 using sufficient quantity of 1 w/w Sodium hydroxide solution, and the volume was made up with dissolved oxygen maintained WFI stored at 20° C. to 25° C. […]

| SMILES | impact of fill volume on potency ([1]; IC-PHC infusion bags) | assay of autoclaved sample vs fill volume ([1]; IC-S infusion bags) | Midazolam potency loss ([2]; IC-H-AE-1 infusion bags) | Midazolam potency, autoclaved vs un-autoclaved ([2]; IC-PHC infusion bags) | Midazolam potency after autoclaving ([2]; IC-S and IC-S′ infusion bags) | period of stability ([3]; 1 mg/ml in 0.9% sodium chloride, polyvinyl chloride bags, fluorescent light, room temperature (McMullin et al.)) | potency loss ([4]; IC-PHC infusion bags, 0.2 and 0.5 mg/mL) | potency loss ([4]; IC-PHC infusion containers, 0.2 mg/mL) | potency loss ([4]; IC-PHC infusion containers, 0.5 mg/mL) | potency loss ([4]; IC-S and IC-S′ infusion bags, 0.2 and 0.5 mg/mL) | loss in assay or content upon autoclaving and long term storage ([5]; cyclo-olefin polymer or co-polymer as innermost layer of the infusion container) | loss of assay percentage immediately after autoclaving ([5]; infusion bags with inner layer of low density polyethylene, polypropylene, polyolefin copolymer or ethylene propylene copolymer) | period over which diluted preparation was stable ([3]; 0.5 mg/ml, diluted with 5% dextrose solution and 0.9% sodium chloride, polyolefin bags, dark, room temperature (Hagan et al.)) [days] | period over which diluted solution remained stable ([3]; 1 mg/ml diluted with 5% dextrose, polyvinyl chloride and polyolefin bags, regardless of storage conditions (Karlage et al.)) |
| --- | --- | --- | --- | --- | --- | --- | --- | --- | --- | --- | --- | --- | --- | --- |
| Cc1ncc2n1-c1ccc(Cl)cc1C(c1ccccc1F)=NC2 [Midazolam] | no impact of fill volume on potency | increasing trend with increasing fill volume | Potency loss was also not observed | no significant change | found to decrease after autoclaving | about 10 days | no potency loss | no potency loss | no potency loss | significant potency loss | substantially no loss in assay | significant loss of assay percentage |  |  |
| Cc1ncc2n1-c1ccc(Cl)cc1C(c1ccccc1F)=NC2.Cl [Midazolam hydrochloride, 8-chloro-6-(2-fluorophenyl)-1-methyl-4H-imidazo[1,5-a][1,4] benzodiazepine hydrochloride] |  |  |  |  |  |  |  |  |  |  |  |  | 30 | about 27 days |
